Test results taken from patent US20070082018A1, “Stabilized antimicrobial compositions and related methods of preparation” (priority 2005, published 2007).

What was measured:
[1] = Critical micelle concentration from surface tension (drop shape tensiometry); format: physicochemical; conditions: for Critical micelle concentration (CMC): pure systems in water
Experimental: The critical micelle concentration of the pure systems was determined by plotting surface tension values against the logarithm of the total surfactant concentration. In order to determine the values of the critical micelle concentration, two linear fits were used. The first line was fitted to interval of concentration characterized by linear decrease of the surface tension and the second one to the region of concentration with the nearly constant surface tension. The point in which the fitted lines cross corresponds to the value of the critical micelle concentration (CMC). Here, the CMC is reached at a Mirenat concentration 0.25% v/v. This corresponds to 1.65 mmol.L^−1 of lauric arginate, 4 times lower than the literature value. Accordingly, all experiments will be carried out at a concentration largely exceeding the found value: 5% v/v.
Measurement of Surface Tension. A drop shape analysis tensiometer (Model DSA-G10 MK2, Kruss USA, Charlotte, N.C.) was used to determine surface tension of surfactant solutions (20.0±0.5° C.). The tensiometer determines the shape of pendant drops or bubbles through numerical analysis of the entire drop shape. The calculation of the interfacial tension from the drop shape is based on the Young-Laplace equation of capillarity and a detailed description can be found elsewhere (Dukhin, Kretschmer et al. 1995). Surface tension measurements were carried out at 20.0±0.5 ° C. To ensure accurate temperature control, an air bubble was formed at the inverted tip of a syringe that was submerged in the surfactant solution contained in a thermostatted cuvette. The syringe/cuvette system was positioned on an optical bench between the light source and a high-speed CCD camera. […] Samples were assumed to be equilibrated (the equilibrium dynamic interfacial tension DITeq) when measured values of DITeq remained unchanged for 30 minutes. […] Solution were equilibrated to 20° C. in a waterbath and density measured using a digital density meter (DMA 35N, Anton Paar GmbH, Graz, Austria). […]

[2] = Solution turbidity (absorbance at 600 nm) and precipitation versus pH on NaOH titration; format: physicochemical; conditions: aqueous solutions, 5 wt % LAE, pH 2-13
Experimental: The solution pH was increased stepwise by adding 0.5N NaOH and was recorded 2 min following each addition. It was plotted against the total amount of OH added for each of the solutions. Three minutes following each addition, a sub-sample was delivered via pipette into a cuvette for light absorption determination. […] However, this drastic change doesn't occur at the same hydroxide ions concentration for each of the different T20 concentrations. Indeed, it progressively shifts to the right of the graphic. Notice that beginning pH values are very close to each other for each solution. To the contrary, final pH values corresponding to the addition of 11 mmol OH^− are not the same and tend to decrease while the amount of T20 becomes higher. […]
pH would be expected to have an effect on precipitation as it affects the concentration of background ions H^+ and OH^− in the medium. […] It has been assumed that the initial rate of change in absorbance in the dispersions is a qualitative measure of the precipitation rate. […]
Solution Turbidity. Absorbance of solutions adjusted to pH or containing salts was measured by spectroscopy at a wavelength of 600 nm using a UV-Visible spectrophotometer (Spectronic 21D, Milton Roy, Rochester, N.Y.). […] The change in the of absorbance of solutions was used as an indirect measure to formation of larger particles an/or aggregates.

Escherichia coli = conditions: cited from earlier work
Listeria monocytogenes = conditions: cited from earlier work
[3] = Effect of salts on stability of surfactant solutions, visual observation of precipitation; format: physicochemical; conditions: aqueous solutions, 5 wt % LAE
Experimental: Several experiments were conducted to examine the influence of salts on the stability of solutions containing Mirenat. The pH was not controlled here, as the buffer could mask the real behavior of the system. Still, it remained almost unchanged after the addition of salts. The added counterion (anion) contributed by the added electrolyte is assumed to be the same species as that contributed by the cationic surfactant, i.e. chloride ions Cl^−. Therefore, chloride salts, i.e. sodium chloride NaCl and calcium chloride CaCl2, were used. […] Precipitation occurred slowly, especially with low salt concentration where it could take up to 5 days. […] Almost every time precipitation took place, little or even no turbidity was noticeable. The results provided in Table 1 reflect qualitative visual observation.
Materials and Solution Preparation. Concentrated Mirenat®-N solution (25% lauric arginate, 75% PEG) was obtained from A&B Ingredients and used without further purification. Polyoxyethylene 20 sorbitan monolaureate (Tween 20), solvents (HCl, NaOH, purity >99%) and NaCl (>99%) was obtained from Sigma Chemical (St. Louis, Mo.). All solutions were prepared using doubles distilled and deionized water. Micellar solutions were prepared by gently mixing surfactants (Tween and LAE) at appropriate concentrations with double distilled water. As needed, pH was adjusted using HCl and NaOH.

Molecule	Critical micelle concentration (CMC) [1] [% v/v]	pH at which precipitates form [2]	Minimum inhibitory concentration (Escherichia coli)	Critical micelle concentration (CMC) as lauric arginate ([1]; corresponds to Mirenat 0.25% v/v) [mmol/L]	Minimum inhibitory concentration (Listeria monocytogenes)	CaCl2 concentration at which precipitates form [3] [g/L]	NaCl concentration at which precipitates form [3] [g/L]
Polyoxyethylene 20 sorbitan monolaureate [T20]	0.3						
CCCCCCCCCCCC(=O)N[C@@H](CCCNC(=N)N)C(=O)OCC.Cl [LAE, ethyl-N^alpha-dodecanoyl-L-arginate hydrochloride]	0.25	> 4.1	less than 10 ppm	1.65	less than 10 ppm	> 15	> 10
